Laboratory results from the NIST ThermoML archive (doi:10.1021/acs.jced.6b00657).

Assay: xn = mol fraction of the nth substance listed
Settings: Liquid, absorption in thin film, x2 = 0

CCn1cc[n+](C)c1.N#C[C-](C#N)C#N [1-ethyl-3-methyl-1H-imidazolium tricyanomethanide] + O=C=O
Settings	binary diffusion coefficient [m2/s]
298.15 K, 96 kPa	3.3e-10
298.15 K, 194 kPa	2.4e-10
298.15 K, 294 kPa	2.7e-10
298.15 K, 393 kPa	2.6e-10
298.15 K, 493 kPa	2.8e-10
298.15 K, 793 kPa	3.6e-10
298.15 K, 893 kPa	3.2e-10
298.15 K, 993 kPa	3.2e-10
298.15 K, 1293 kPa	3.9e-10
298.15 K, 1393 kPa	3.8e-10
298.15 K, 1493 kPa	4.1e-10
298.15 K, 1793 kPa	4.4e-10
298.15 K, 1893 kPa	4.1e-10
298.15 K, 1992 kPa	4.2e-10
308.15 K, 194 kPa	2.9e-10
308.15 K, 293 kPa	3e-10
308.15 K, 393 kPa	3e-10
308.15 K, 493 kPa	3e-10
308.15 K, 593 kPa	3.1e-10
308.15 K, 693 kPa	3.3e-10
308.15 K, 792 kPa	3.8e-10
308.15 K, 893 kPa	3.6e-10
308.15 K, 993 kPa	3.5e-10
308.15 K, 1093 kPa	3.6e-10
308.15 K, 1192 kPa	4.1e-10
308.15 K, 1293 kPa	3.7e-10
308.15 K, 1393 kPa	3.9e-10
308.15 K, 1493 kPa	4.1e-10
308.15 K, 1593 kPa	3.9e-10
308.15 K, 1693 kPa	4.1e-10
308.15 K, 1792 kPa	4.2e-10
308.15 K, 1893 kPa	4.5e-10
308.15 K, 1993 kPa	4.1e-10
323.15 K, 194 kPa	4.4e-10
323.15 K, 294 kPa	4.8e-10
323.15 K, 394 kPa	4.4e-10
323.15 K, 494 kPa	3.9e-10
323.15 K, 593 kPa	4.1e-10
323.15 K, 692 kPa	4.1e-10
323.15 K, 793 kPa	4.4e-10
323.15 K, 892 kPa	5e-10
323.15 K, 993 kPa	4.4e-10
323.15 K, 1093 kPa	4.2e-10
323.15 K, 1193 kPa	5.3e-10
323.15 K, 1392 kPa	4.6e-10
323.15 K, 1492 kPa	4.2e-10
323.15 K, 1593 kPa	4.2e-10
323.15 K, 1693 kPa	4.2e-10
323.15 K, 1793 kPa	5.9e-10
323.15 K, 1993 kPa	4.9e-10
338.25 K, 94 kPa	5.1e-10
338.25 K, 194 kPa	5e-10
338.25 K, 294 kPa	5.1e-10
338.25 K, 394 kPa	4.9e-10
338.25 K, 494 kPa	5.8e-10
338.25 K, 594 kPa	4.5e-10
338.25 K, 693 kPa	4.6e-10
338.25 K, 793 kPa	5.6e-10
338.25 K, 893 kPa	5.2e-10
338.25 K, 1093 kPa	5.1e-10
338.25 K, 1192 kPa	5.2e-10
338.25 K, 1393 kPa	5.8e-10
338.25 K, 1493 kPa	4.9e-10
338.25 K, 1592 kPa	5.1e-10
338.25 K, 1693 kPa	4.6e-10
338.25 K, 1792 kPa	5.2e-10
338.25 K, 1993 kPa	5.4e-10
353.25 K, 95 kPa	6.1e-10
353.25 K, 294 kPa	9e-10
353.25 K, 494 kPa	7.4e-10
353.25 K, 594 kPa	6.6e-10
353.25 K, 694 kPa	6.6e-10
353.25 K, 794 kPa	6.8e-10
353.25 K, 894 kPa	7.8e-10
353.25 K, 994 kPa	6.7e-10
353.25 K, 1093 kPa	6.8e-10
353.25 K, 1192 kPa	7e-10
353.25 K, 1593 kPa	7.5e-10
353.25 K, 1693 kPa	8.2e-10
353.25 K, 1893 kPa	7.4e-10
353.25 K, 1993 kPa	7.8e-10

CCCCCC[n+]1ccn(C)c1.N#C[C-](C#N)C#N [3-hexyl-1-methylimidazolium tricyanomethanide] + O=C=O
Settings	binary diffusion coefficient [m2/s]
298.15 K, 94 kPa	2e-10
298.15 K, 194 kPa	1.8e-10
298.15 K, 293 kPa	1.8e-10
298.15 K, 393 kPa	2e-10
298.15 K, 493 kPa	2e-10
298.15 K, 693 kPa	2.4e-10
298.15 K, 793 kPa	2.4e-10
298.15 K, 893 kPa	2.4e-10
298.15 K, 993 kPa	2.2e-10
298.15 K, 1193 kPa	3e-10
298.15 K, 1293 kPa	3.2e-10
298.15 K, 1393 kPa	2.9e-10
298.15 K, 1493 kPa	3e-10
298.15 K, 1693 kPa	3.1e-10
298.15 K, 1793 kPa	3.3e-10
308.15 K, 101 kPa	2.6e-10
308.15 K, 198 kPa	2.4e-10
308.15 K, 297 kPa	2.5e-10
308.15 K, 394 kPa	2.5e-10
308.15 K, 494 kPa	2.5e-10
308.15 K, 593 kPa	2.5e-10
308.15 K, 692 kPa	2.7e-10
308.15 K, 793 kPa	2.2e-10
308.15 K, 892 kPa	3.3e-10
308.15 K, 993 kPa	2.9e-10
308.15 K, 1093 kPa	3.1e-10
308.15 K, 1192 kPa	3.3e-10
308.15 K, 1292 kPa	3.3e-10
308.15 K, 1393 kPa	3.4e-10
308.15 K, 1492 kPa	3.4e-10
308.15 K, 1592 kPa	4e-10
308.15 K, 1693 kPa	3.8e-10
308.15 K, 1793 kPa	4.1e-10
308.15 K, 1893 kPa	4e-10
308.15 K, 1993 kPa	4.1e-10
323.15 K, 94 kPa	2.8e-10
323.15 K, 194 kPa	4.1e-10
323.15 K, 293 kPa	3.1e-10
323.15 K, 393 kPa	3.5e-10
323.15 K, 493 kPa	3.9e-10
323.15 K, 594 kPa	4.2e-10
323.15 K, 693 kPa	3.7e-10
323.15 K, 793 kPa	3.7e-10
323.15 K, 893 kPa	3.9e-10
323.15 K, 993 kPa	4e-10
323.15 K, 1093 kPa	3.8e-10
323.15 K, 1193 kPa	4e-10
323.15 K, 1293 kPa	4e-10
323.15 K, 1393 kPa	4.4e-10
323.15 K, 1493 kPa	4.3e-10
323.15 K, 1593 kPa	4.2e-10
323.15 K, 1693 kPa	4.7e-10
323.15 K, 1793 kPa	4.5e-10
323.15 K, 1893 kPa	3.7e-10
323.15 K, 1993 kPa	5.4e-10
338.25 K, 194 kPa	5.1e-10
338.25 K, 294 kPa	3.7e-10
338.25 K, 393 kPa	4.9e-10
338.25 K, 494 kPa	6.7e-10
338.25 K, 693 kPa	4.9e-10
338.25 K, 793 kPa	4.8e-10
338.25 K, 893 kPa	5.8e-10
338.25 K, 993 kPa	5.3e-10
338.25 K, 1092 kPa	5.3e-10
338.25 K, 1193 kPa	5.3e-10
338.25 K, 1292 kPa	5.6e-10
338.25 K, 1393 kPa	4.8e-10
338.25 K, 1493 kPa	5.5e-10
338.25 K, 1592 kPa	4.9e-10
338.25 K, 1693 kPa	6.6e-10
338.25 K, 1792 kPa	6e-10
338.25 K, 1893 kPa	6.1e-10
338.25 K, 1993 kPa	6.3e-10
353.25 K, 594 kPa	6.4e-10
353.25 K, 694 kPa	7.1e-10
353.25 K, 893 kPa	6e-10
353.25 K, 993 kPa	6.5e-10
353.25 K, 1193 kPa	6.3e-10
353.25 K, 1293 kPa	6.8e-10
353.25 K, 1393 kPa	6.3e-10
353.25 K, 1593 kPa	5.3e-10
353.25 K, 1693 kPa	7.6e-10
353.25 K, 1793 kPa	7.7e-10
353.25 K, 1893 kPa	7.7e-10
353.25 K, 1993 kPa	6.7e-10
